Experimental data published in patent publication US20240376097A1, “BCL-2 Inhibitor” (BeiGene Ltd., priority 2020, published 2024).
Where two headings read alike, the source gives them in different places.

Legend:
[1] = molecular target: Recombinant human Bcl-2 protein (Homo sapiens (Human), UniProt P10415); assay: Bcl-2 TR-FRET Assay; type: binding
Summary of the method: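 TR-FRET read (337 nm excitation, 520/490 nm emission) after 1 h with 0.5 nM FITC-labeled Bak peptide and Tb-cryptate anti-6His antibody. Bcl-2 at 0.05 nM had been pre-incubated 0.5 h with compound. IC50 fitted by four-parameter logistic equation.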

[2] = test system: BCL-2 G101V knock-in cell line H96 (derive from RS4;11); assay: Bcl 2-G101V Knock-In RS4;11 Cell Proliferation Assay; type: cell-based; details: Homo sapiens, RS4-11, 48 h, RS4;11 Bcl-2 G101V knock-in clone H96, 48 hrs, CellTiter-GLO, read-out: Cellular proliferation assay (IC50, nM) RS4
Summary of the method: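 CellTiter-Glo luminescence after 48 h, 37 °C compound treatment (10 concentrations, maximum 1 μM or 10 μM) gave mean IC50 values. Cells were 50,000 per well of H96, a BCL2-G101V knock-in single clone derived from RS4;11 by Cas9 editing.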

[3] = molecular target: recombinant human Bcl-2 D103Y protein (Homo sapiens (Human), UniProt P10415, D103Y); assay: Bcl-2-D103Y Biochemical Assay (TR-FRET); type: binding; details: for IC50: TR-FRET, FITC labeled Bak peptide; for Ratio of Bcl-2 D103Y/Bcl-2 WT: ratio of IC50; for ratio of Bcl-2 D103Y/Bcl-2 wt, compared with F91b in WO2019210828: comparison in words
Summary of the method: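 Compounds titrated against the Bcl-2 D103Y–ligand interaction; inhibition derived from the TR-FRET emission ratio 490 nm/520 nm after 337 nm excitation. Four-parameter logistic fitting gave IC50.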

[4] = Bcl-2 wild type, TR-FRET, read-out: Biochemical assay (IC50, nM) Bcl-2 WT
[5] = wild type Bcl-2, unit inferred, read-out: Bcl-2 WT

Sequence of Recombinant human Bcl-2 protein (P10415 whole entry): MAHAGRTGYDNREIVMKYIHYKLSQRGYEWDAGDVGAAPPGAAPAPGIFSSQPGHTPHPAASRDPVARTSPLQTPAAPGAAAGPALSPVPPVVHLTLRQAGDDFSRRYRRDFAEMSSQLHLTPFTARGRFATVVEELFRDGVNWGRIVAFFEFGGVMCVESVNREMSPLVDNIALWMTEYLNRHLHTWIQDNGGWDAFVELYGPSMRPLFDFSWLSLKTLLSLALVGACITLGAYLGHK
Sequence of recombinant human Bcl-2 D103Y protein (P10415 whole entry D103Y): as the sequence (P10415 whole entry) above, with D103Y counted along it

Compound: CC(C)c1ccccc1C1CN(Cc2cc(F)cc(F)c2)CCN1C1CC2(CCN(c3ccc(C(=O)NS(=O)(=O)c4ccc(NC[C@H]5CC[C@](C)(O)CC5)c([N+](=O)[O-])c4)c(Oc4cnc5[nH]ccc5c4)c3)CC2)C1 (some centres unmarked) [Example 51, 2-((1H-pyrrolo[2,3-b]pyridin-5-yl)oxy)-4-(2-(4-(3,5-difluorobenzyl)-2-(2-isopropylphenyl)piperazin-1-yl)-7-azaspiro[3.5]nonan-7-yl)-N-((4-((((1r,4r)-4-hydroxy-4-methylcyclohexyl)methyl)amino)-3-nitrophenyl)sulfonyl)benzamide]
- IC50 [1, 4]: 0.42 nM
- IC50 [1, 5]: 0.42 nM
- IC50 [2]: 4 nM
- IC50 [3]: 1.5 nM
- Ratio of Bcl-2 D103Y/Bcl-2 WT [3]: 3.5

Compound: COc1cc(CN2CCN(C3CC4(CCN(c5ccc(C(=O)NS(=O)(=O)c6ccc(NC[C@H]7CC[C@](C)(O)CC7)c([N+](=O)[O-])c6)c(Oc6cnc7[nH]cc(F)c7c6)c5)CC4)C3)[C@H](c3ccccc3C(C)C)C2)cc2c1OCC2(C)C [Example 285, 2-((3-fluoro-1H-pyrrolo[2,3-b]pyridin-5-yl)oxy)-N-((4-((((1r,4r)-4-hydroxy-4-methylcyclohexyl)methyl)amino)-3-nitrophenyl)sulfonyl)-4-(2-((R)-2-(2-isopropylphenyl)-4-((7-methoxy-3,3-dimethyl-2,3-dihydrobenzofuran-5-yl)methyl)piperazin-1-yl)-7-azaspiro [3.5]nonan-7-yl)benzamide]
- IC50 [1, 4]: 0.26 nM
- IC50 [1, 5]: 0.26 nM
- IC50 [2]: 0.41 nM
- IC50 [3]: 0.49 nM
- Ratio of Bcl-2 D103Y/Bcl-2 WT [3]: 1.9

Compound: CC(C)c1ccccc1C1CN(Cc2ccc(F)cc2)CCN1C1CC2(CCN(c3ccc(C(=O)NS(=O)(=O)c4ccc(NC[C@H]5CC[C@](C)(O)CC5)c([N+](=O)[O-])c4)c(Oc4cnc5[nH]ccc5c4)c3)CC2)C1 (some centres unmarked) [Example 28, 2-((1H-pyrrolo[2,3-b]pyridin-5-yl)oxy)-4-(2-(4-(4-fluorobenzyl)-2-(2-isopropylphenyl)piperazin-1-yl)-7-azaspiro[3.5]nonan-7-yl)-N-((4-((((1r,4r)-4-hydroxy-4-methylcyclohexyl)methyl)amino)-3-nitrophenyl)sulfonyl)benzamide]
- IC50 [1, 4]: 0.23 nM
- IC50 [1, 5]: 0.23 nM
- IC50 [2]: 2.69 nM
- IC50 [3]: 0.34 nM
- Ratio of Bcl-2 D103Y/Bcl-2 WT [3]: 1.5

Compound: CC(C)c1ccccc1[C@@H]1CN(Cc2ccc(F)c(F)c2)CCN1C1CC2(CCN(c3ccc(C(=O)NS(=O)(=O)c4ccc(NC[C@H]5CC[C@](C)(O)CC5)c([N+](=O)[O-])c4)c(Oc4cnc5[nH]ccc5c4)c3)CC2)C1 (single isomer, unassigned) [Example 52a, 2-((1H-pyrrolo[2,3-b]pyridin-5-yl)oxy)-4-(2-((R or S)-4-(3,4-difluorobenzyl)-2-(2-isopropylphenyl)piperazin-1-yl)-7-azaspiro[3.5]nonan-7-yl)-N-((4-((((1r,4r)-4-hydroxy-4-methylcyclohexyl)methyl)amino)-3-nitrophenyl)sulfonyl)benzamide]
- IC50 [1, 4]: 0.16 nM
- IC50 [1, 5]: 0.16 nM
- IC50 [2]: 1.67 nM
- IC50 [3]: 0.37 nM
- Ratio of Bcl-2 D103Y/Bcl-2 WT [3]: 2.4

Compound: COc1cc(CN2CCN(C3CC4(C3)CN(c3ccc(C(=O)NS(=O)(=O)c5ccc(NC[C@H]6CC[C@](C)(O)CC6)c([N+](=O)[O-])c5)c(Oc5cnc6[nH]cc(F)c6c5)c3)C4)[C@H](c3ccccc3C(C)C)C2)ccc1OC1CC1 [Example 321, 4-(6-((R)-4-(4-cyclopropoxy-3-methoxybenzyl)-2-(2-isopropylphenyl)piperazin-1-yl)-2-azaspiro[3.3]heptan-2-yl)-2-((3-fluoro-1H-pyrolo[2,3-b]pyridin-5-yl)oxy)-N-((4-((((1r,4r)-4-hydroxy-4-methylcyclohexy)methyl)amino)-3-nitrophenyl)sulfonyl)benzamide]
- IC50 [1, 4]: 0.17 nM
- IC50 [1, 5]: 0.17 nM
- IC50 [2]: 0.24 nM
- IC50 [3]: 0.14 nM
- Ratio of Bcl-2 D103Y/Bcl-2 WT [3]: 0.79

Compound: CC(C)c1ccccc1C1CN(Cc2ccc(F)c(F)c2)CCN1C1CC2(CCN(c3ccc(C(=O)NS(=O)(=O)c4ccc(NC[C@H]5CC[C@](C)(O)CC5)c([N+](=O)[O-])c4)c(Oc4cnc5[nH]ccc5c4)c3)CC2)C1 (some centres unmarked) [Example 52, 2-((1H-pyrrolo[2,3-b]pyridin-5-yl)oxy)-4-(2-(4-(3,4-difluorobenzyl)-2-(2-isopropylphenyl)piperazin-1-yl)-7-azaspiro[3.5]nonan-7-yl)-N-((4-((((1r,4r)-4-hydroxy-4-methylcyclohexyl)methyl)amino)-3-nitrophenyl)sulfonyl)benzamide]
- IC50 [1, 4]: 0.24 nM
- IC50 [1, 5]: 0.24 nM
- IC50 [2]: 2.7 nM
- IC50 [3]: 0.61 nM
- Ratio of Bcl-2 D103Y/Bcl-2 WT [3]: 2.5

Compound: COc1cc(CN2CCN(C3CC4(C3)CN(c3ccc(C(=O)NS(=O)(=O)c5ccc(NC[C@H]6CC[C@](C)(O)CC6)c([N+](=O)[O-])c5)c(Oc5cnc6[nH]ccc6c5)c3)C4)[C@H](c3ccccc3C(C)C)C2)ccc1C1CC1 [Example 233, 2-((1H-pyrrolo[2,3-b]pyridin-5-yl)oxy)-4-(6-((R)-4-(4-cyclopropyl-3-methoxybenzyl)-2-(2-isopropylphenyl)piperazin-1-yl)-2-azaspiro[3.3]heptan-2-yl)-N-((4-((((1r,4r)-4-hydroxy-4-methylcyclohexyl)methyl)amino)-3-nitrophenyl)sulfonyl)benzamide]
- IC50 [1, 4]: 0.43 nM
- IC50 [1, 5]: 0.43 nM
- IC50 [2]: 0.25 nM
- IC50 [3]: 0.83 nM
- Ratio of Bcl-2 D103Y/Bcl-2 WT [3]: 1.9

Compound: COc1ccc(CN2CCN(C3CC4(CCN(c5ccc(C(=O)NS(=O)(=O)c6ccc(NC[C@H]7CC[C@](C)(O)CC7)c([N+](=O)[O-])c6)c(Oc6cnc7[nH]ccc7c6)c5)CC4)C3)C(c3ccccc3C(C)C)C2)cn1 (some centres unmarked) [Example 72, 2-((1H-pyrrolo[2,3-b]pyridin-5-yl)oxy)-N-((4-((((1r,4r)-4-hydroxy-4-methylcyclohexyl)methyl)amino)-3-nitrophenyl)sulfonyl)-4-(2-(2-(2-isopropylphenyl)-4-((6-methoxypyridin-3-yl)methyl)piperazin-1-yl)-7-azaspiro[3.5]nonan-7-yl)benzamide]
- IC50 [1, 4]: 0.05 nM
- IC50 [1, 5]: 0.05 nM
- IC50 [2]: 1.7 nM
- IC50 [3]: 0.08 nM
- ratio of Bcl-2 D103Y/Bcl-2 wt, compared with F91b in WO2019210828 [3]: significantly lower
- Ratio of Bcl-2 D103Y/Bcl-2 WT [3]: 1.6

Compound: COc1ccc(CN2CCN(C3CC4(CCN(c5ccc(C(=O)NS(=O)(=O)c6ccc(NCC7(F)CCOCC7)c([N+](=O)[O-])c6)c(Oc6cnc7[nH]ccc7c6)c5)CC4)C3)[C@H](c3ccccc3C(C)C)C2)cc1 (single isomer, unassigned) [Example 32, (R or S)-2-((1H-pyrrolo[2,3-b]pyridin-5-yl)oxy)-N-((4-(((4-fluorotetrahydro-2H-pyran-4-yl)methyl)amino)-3-nitrophenyl)sulfonyl)-4-(2-(2-(2-isopropylphenyl)-4-(4-methoxybenzyl)piperazin-1-yl)-7-azaspiro[3.5]nonan-7-yl)benzamide]
- IC50 [1, 4]: 0.096 nM
- IC50 [1, 5]: 0.096 nM
- IC50 [2]: 0.96 nM
- IC50 [3]: 0.11 nM
- Ratio of Bcl-2 D103Y/Bcl-2 WT [3]: 1.1

Compound: COc1cc(CN2CCN(C3CC4(C3)CN(c3ccc(C(=O)NS(=O)(=O)c5ccc(NC[C@H]6CC[C@](C)(O)CC6)c([N+](=O)[O-])c5)c(Oc5cnc6[nH]cc(F)c6c5)c3)C4)[C@H](c3ccccc3C(C)C)C2)ccc1C [Example 274, 2-((3-fluoro-1H-pyrrolo[2,3-b]pyridin-5-yl)oxy)-N-((4-((((1r,4r)-4-hydroxy-4-methylcyclohexyl)methyl)amino)-3-nitrophenyl)sulfonyl)-4-(6-((R)-2-(2-isopropylphenyl)-4-(3-methoxy-4-methylbenzyl)piperazin-1-yl)-2-azaspiro[3.3]heptan-2-yl) benzamide]
- IC50 [1, 4]: 0.55 nM
- IC50 [1, 5]: 0.55 nM
- IC50 [2]: 0.29 nM
- IC50 [3]: 0.31 nM
- Ratio of Bcl-2 D103Y/Bcl-2 WT [3]: 0.57

Compound: CC(C)c1ccccc1C1CN(Cc2ccccc2F)CCN1C1CC2(CCN(c3ccc(C(=O)NS(=O)(=O)c4ccc(NC[C@H]5CC[C@](C)(O)CC5)c([N+](=O)[O-])c4)c(Oc4cnc5[nH]ccc5c4)c3)CC2)C1 (some centres unmarked) [Example 46, 2-((1H-pyrrolo[2,3-b]pyridin-5-yl)oxy)-4-(2-(4-(2-fluorobenzyl)-2-(2-isopropylphenyl)piperazin-1-yl)-7-azaspiro[3.5]nonan-7-yl)-N-((4-((((1r,4r)-4-hydroxy-4-methylcyclohexyl)methyl)amino)-3-nitrophenyl)sulfonyl)benzamide]
- IC50 [1, 4]: 0.34 nM
- IC50 [1, 5]: 0.34 nM
- IC50 [2]: 10.2 nM
- IC50 [3]: 1.8 nM
- Ratio of Bcl-2 D103Y/Bcl-2 WT [3]: 5.1

Compound: COc1ccc(CN2CCN(C3CC4(C3)CN(c3ccc(C(=O)NS(=O)(=O)c5ccc(NC[C@H]6CC[C@](C)(O)CC6)c([N+](=O)[O-])c5)c(Oc5cnc6[nH]cc(F)c6c5)c3)C4)[C@H](c3ccccc3C(C)C)C2)cc1OC [Example 141a, 4-(6-((R)-4-(3,4-dimethoxybenzyl)-2-(2-isopropylphenyl)piperazin-1-yl)-2-azaspiro[3.3]heptan-2-yl)-2-((3-fluoro-1H-pyrrolo[2,3-b]pyridin-5-yl)oxy)-N-((4-((((1r,4r)-4-hydroxy-4-methylcyclohexyl)methyl)amino)-3-nitrophenyl)sulfonyl)benzamide]
- IC50 [1, 4]: 0.054 nM
- IC50 [1, 5]: 0.054 nM
- IC50 [2]: 0.268 nM
- IC50 [3]: 0.072 nM
- ratio of Bcl-2 D103Y/Bcl-2 wt, compared with F91b in WO2019210828 [3]: significantly lower
- Ratio of Bcl-2 D103Y/Bcl-2 WT [3]: 1.3
